In the NIST ThermoML archive (doi:10.1016/j.jct.2011.10.001):
Numbers after ± are expanded uncertainties.

Assay: molar heat capacity at constant pressure
Settings: 101.33 kPa, Crystal, Vacuum adiabatic calorimetry

CCCC(=O)OC [methyl butanoate]
molar heat capacity at constant pressure (5 K): 0.356 ± 0.016 J/K/mol
molar heat capacity at constant pressure (7.61 K): 1.24 ± 0.023 J/K/mol
molar heat capacity at constant pressure (7.88 K): 1.381 ± 0.024 J/K/mol
molar heat capacity at constant pressure (8.13 K): 1.514 ± 0.025 J/K/mol
molar heat capacity at constant pressure (8.39 K): 1.657 ± 0.028 J/K/mol
molar heat capacity at constant pressure (8.65 K): 1.805 ± 0.028 J/K/mol
molar heat capacity at constant pressure (8.9 K): 2.108 ± 0.031 J/K/mol
molar heat capacity at constant pressure (9.16 K): 2.207 ± 0.031 J/K/mol
molar heat capacity at constant pressure (9.41 K): 2.466 ± 0.032 J/K/mol
molar heat capacity at constant pressure (9.66 K): 2.549 ± 0.033 J/K/mol
molar heat capacity at constant pressure (9.91 K): 2.719 ± 0.034 J/K/mol
molar heat capacity at constant pressure (10 K): 2.828 ± 0.035 J/K/mol
molar heat capacity at constant pressure (10.22 K): 2.894 ± 0.036 J/K/mol
molar heat capacity at constant pressure (10.6 K): 3.3 ± 0.04 J/K/mol
molar heat capacity at constant pressure (10.98 K): 3.648 ± 0.043 J/K/mol
molar heat capacity at constant pressure (11.35 K): 4.064 ± 0.045 J/K/mol
molar heat capacity at constant pressure (11.73 K): 4.38 ± 0.047 J/K/mol
molar heat capacity at constant pressure (12.13 K): 4.735 ± 0.049 J/K/mol
molar heat capacity at constant pressure (12.5 K): 5.111 ± 0.051 J/K/mol
molar heat capacity at constant pressure (12.86 K): 5.563 ± 0.054 J/K/mol
molar heat capacity at constant pressure (13.23 K): 5.907 ± 0.056 J/K/mol
molar heat capacity at constant pressure (13.6 K): 6.278 ± 0.058 J/K/mol
molar heat capacity at constant pressure (13.96 K): 6.646 ± 0.06 J/K/mol
molar heat capacity at constant pressure (14.33 K): 7.063 ± 0.063 J/K/mol
molar heat capacity at constant pressure (14.68 K): 7.551 ± 0.065 J/K/mol
molar heat capacity at constant pressure (15 K): 7.893 ± 0.067 J/K/mol
molar heat capacity at constant pressure (15.04 K): 7.92 ± 0.068 J/K/mol
molar heat capacity at constant pressure (15.4 K): 8.318 ± 0.07 J/K/mol
molar heat capacity at constant pressure (15.76 K): 8.825 ± 0.072 J/K/mol
molar heat capacity at constant pressure (16.11 K): 9.332 ± 0.075 J/K/mol
molar heat capacity at constant pressure (16.47 K): 9.652 ± 0.076 J/K/mol
molar heat capacity at constant pressure (16.82 K): 10.21 ± 0.078 J/K/mol
molar heat capacity at constant pressure (17.17 K): 10.66 ± 0.08 J/K/mol
molar heat capacity at constant pressure (17.53 K): 11.07 ± 0.081 J/K/mol
molar heat capacity at constant pressure (17.88 K): 11.41 ± 0.084 J/K/mol
molar heat capacity at constant pressure (18.23 K): 11.84 ± 0.085 J/K/mol
molar heat capacity at constant pressure (18.58 K): 12.53 ± 0.089 J/K/mol
molar heat capacity at constant pressure (18.93 K): 12.9 ± 0.091 J/K/mol
molar heat capacity at constant pressure (19.28 K): 13.53 ± 0.092 J/K/mol
molar heat capacity at constant pressure (19.63 K): 13.98 ± 0.094 J/K/mol
molar heat capacity at constant pressure (19.98 K): 14.42 ± 0.094 J/K/mol
molar heat capacity at constant pressure (20 K): 14.36 ± 0.094 J/K/mol
molar heat capacity at constant pressure (20.62 K): 15.2 ± 0.096 J/K/mol
molar heat capacity at constant pressure (21.39 K): 16.16 ± 0.099 J/K/mol
molar heat capacity at constant pressure (22.15 K): 17.23 ± 0.1 J/K/mol
molar heat capacity at constant pressure (22.91 K): 18.29 ± 0.1 J/K/mol
molar heat capacity at constant pressure (23.67 K): 19.35 ± 0.11 J/K/mol
molar heat capacity at constant pressure (24.44 K): 20.59 ± 0.11 J/K/mol
molar heat capacity at constant pressure (25 K): 21.25 ± 0.11 J/K/mol
molar heat capacity at constant pressure (25.2 K): 21.61 ± 0.11 J/K/mol
molar heat capacity at constant pressure (25.97 K): 22.55 ± 0.11 J/K/mol
molar heat capacity at constant pressure (26.73 K): 23.64 ± 0.11 J/K/mol
molar heat capacity at constant pressure (27.49 K): 24.49 ± 0.11 J/K/mol
molar heat capacity at constant pressure (28.25 K): 25.82 ± 0.11 J/K/mol
molar heat capacity at constant pressure (29.01 K): 26.93 ± 0.11 J/K/mol
molar heat capacity at constant pressure (29.77 K): 27.91 ± 0.11 J/K/mol
molar heat capacity at constant pressure (30 K): 28.14 ± 0.1 J/K/mol
molar heat capacity at constant pressure (30.53 K): 29.04 ± 0.1 J/K/mol
molar heat capacity at constant pressure (31.29 K): 29.6 ± 0.1 J/K/mol
molar heat capacity at constant pressure (32.82 K): 31.82 ± 0.11 J/K/mol
molar heat capacity at constant pressure (33.59 K): 32.79 ± 0.11 J/K/mol
molar heat capacity at constant pressure (34.35 K): 33.88 ± 0.11 J/K/mol
molar heat capacity at constant pressure (35 K): 34.59 ± 0.11 J/K/mol
molar heat capacity at constant pressure (35.11 K): 34.58 ± 0.11 J/K/mol
molar heat capacity at constant pressure (35.86 K): 35.63 ± 0.12 J/K/mol
molar heat capacity at constant pressure (36.61 K): 36.63 ± 0.12 J/K/mol
molar heat capacity at constant pressure (37.37 K): 37.49 ± 0.12 J/K/mol
molar heat capacity at constant pressure (38.12 K): 38.33 ± 0.12 J/K/mol
molar heat capacity at constant pressure (38.88 K): 38.88 ± 0.12 J/K/mol
molar heat capacity at constant pressure (39.63 K): 39.87 ± 0.12 J/K/mol
molar heat capacity at constant pressure (40 K): 40.28 ± 0.12 J/K/mol
molar heat capacity at constant pressure (40.39 K): 40.69 ± 0.12 J/K/mol
molar heat capacity at constant pressure (41.14 K): 41.43 ± 0.12 J/K/mol
molar heat capacity at constant pressure (41.9 K): 42.12 ± 0.13 J/K/mol
molar heat capacity at constant pressure (42.65 K): 43.21 ± 0.13 J/K/mol
molar heat capacity at constant pressure (43.4 K): 44 ± 0.13 J/K/mol
molar heat capacity at constant pressure (44.16 K): 44.51 ± 0.13 J/K/mol
molar heat capacity at constant pressure (44.91 K): 45.66 ± 0.13 J/K/mol
molar heat capacity at constant pressure (45 K): 45.57 ± 0.13 J/K/mol
molar heat capacity at constant pressure (45.66 K): 46.29 ± 0.13 J/K/mol
molar heat capacity at constant pressure (46.41 K): 47.13 ± 0.14 J/K/mol
molar heat capacity at constant pressure (47.17 K): 47.63 ± 0.14 J/K/mol
molar heat capacity at constant pressure (47.92 K): 48.66 ± 0.14 J/K/mol
molar heat capacity at constant pressure (48.66 K): 49.52 ± 0.14 J/K/mol
molar heat capacity at constant pressure (49.41 K): 50.2 ± 0.14 J/K/mol
molar heat capacity at constant pressure (50 K): 50.77 ± 0.14 J/K/mol
molar heat capacity at constant pressure (50.16 K): 50.98 ± 0.14 J/K/mol
molar heat capacity at constant pressure (50.91 K): 51.69 ± 0.14 J/K/mol
molar heat capacity at constant pressure (51.66 K): 52.27 ± 0.15 J/K/mol
molar heat capacity at constant pressure (52.4 K): 53.16 ± 0.15 J/K/mol
molar heat capacity at constant pressure (53.15 K): 54.06 ± 0.15 J/K/mol
molar heat capacity at constant pressure (53.89 K): 54.63 ± 0.15 J/K/mol
molar heat capacity at constant pressure (54.64 K): 55.7 ± 0.15 J/K/mol
molar heat capacity at constant pressure (55 K): 55.94 ± 0.15 J/K/mol
molar heat capacity at constant pressure (55.38 K): 56.48 ± 0.15 J/K/mol
molar heat capacity at constant pressure (56.12 K): 57.16 ± 0.16 J/K/mol
molar heat capacity at constant pressure (56.87 K): 57.9 ± 0.16 J/K/mol
molar heat capacity at constant pressure (59.09 K): 60.08 ± 0.16 J/K/mol
molar heat capacity at constant pressure (59.84 K): 60.45 ± 0.16 J/K/mol
molar heat capacity at constant pressure (60 K): 60.87 ± 0.16 J/K/mol
molar heat capacity at constant pressure (60.58 K): 61.42 ± 0.16 J/K/mol
molar heat capacity at constant pressure (61.32 K): 62.07 ± 0.17 J/K/mol
molar heat capacity at constant pressure (62.06 K): 62.68 ± 0.17 J/K/mol
molar heat capacity at constant pressure (62.8 K): 63.44 ± 0.17 J/K/mol
molar heat capacity at constant pressure (63.54 K): 64.04 ± 0.17 J/K/mol
molar heat capacity at constant pressure (64.28 K): 64.72 ± 0.17 J/K/mol
molar heat capacity at constant pressure (65 K): 65.14 ± 0.17 J/K/mol
molar heat capacity at constant pressure (65.03 K): 65.05 ± 0.17 J/K/mol
molar heat capacity at constant pressure (65.77 K): 65.7 ± 0.17 J/K/mol
molar heat capacity at constant pressure (66.5 K): 66.39 ± 0.17 J/K/mol
molar heat capacity at constant pressure (67.24 K): 66.79 ± 0.17 J/K/mol
molar heat capacity at constant pressure (67.98 K): 67.34 ± 0.17 J/K/mol
molar heat capacity at constant pressure (68.72 K): 67.73 ± 0.18 J/K/mol
molar heat capacity at constant pressure (69.46 K): 68.24 ± 0.18 J/K/mol
molar heat capacity at constant pressure (70 K): 68.48 ± 0.18 J/K/mol
molar heat capacity at constant pressure (70.2 K): 68.47 ± 0.18 J/K/mol
molar heat capacity at constant pressure (71.09 K): 68.75 ± 0.18 J/K/mol
molar heat capacity at constant pressure (72.14 K): 69.62 ± 0.18 J/K/mol
molar heat capacity at constant pressure (73.19 K): 70.47 ± 0.18 J/K/mol
molar heat capacity at constant pressure (74.24 K): 70.88 ± 0.18 J/K/mol
molar heat capacity at constant pressure (75 K): 71.36 ± 0.18 J/K/mol
molar heat capacity at constant pressure (75.29 K): 71.51 ± 0.18 J/K/mol
molar heat capacity at constant pressure (76.34 K): 72.3 ± 0.18 J/K/mol
molar heat capacity at constant pressure (77.39 K): 72.87 ± 0.19 J/K/mol
molar heat capacity at constant pressure (78.44 K): 73.35 ± 0.19 J/K/mol
molar heat capacity at constant pressure (78.68 K): 72.62 ± 0.19 J/K/mol
molar heat capacity at constant pressure (79.48 K): 74.12 ± 0.19 J/K/mol
molar heat capacity at constant pressure (79.71 K): 73.82 ± 0.19 J/K/mol
molar heat capacity at constant pressure (80 K): 74.1 ± 0.19 J/K/mol
molar heat capacity at constant pressure (80.53 K): 74.83 ± 0.19 J/K/mol
molar heat capacity at constant pressure (80.74 K): 74.41 ± 0.19 J/K/mol
molar heat capacity at constant pressure (81.58 K): 75.43 ± 0.19 J/K/mol
molar heat capacity at constant pressure (81.76 K): 74.8 ± 0.19 J/K/mol
molar heat capacity at constant pressure (82.62 K): 75.67 ± 0.19 J/K/mol
molar heat capacity at constant pressure (82.79 K): 75.48 ± 0.19 J/K/mol
molar heat capacity at constant pressure (83.67 K): 76.36 ± 0.19 J/K/mol
molar heat capacity at constant pressure (83.81 K): 75.48 ± 0.19 J/K/mol
molar heat capacity at constant pressure (84.83 K): 76.86 ± 0.2 J/K/mol
molar heat capacity at constant pressure (85 K): 76.9 ± 0.19 J/K/mol
molar heat capacity at constant pressure (85.85 K): 77.51 ± 0.2 J/K/mol
molar heat capacity at constant pressure (86.87 K): 77.78 ± 0.2 J/K/mol
molar heat capacity at constant pressure (87.89 K): 78.68 ± 0.2 J/K/mol
molar heat capacity at constant pressure (88.91 K): 79.57 ± 0.2 J/K/mol
molar heat capacity at constant pressure (89.93 K): 79.99 ± 0.2 J/K/mol
molar heat capacity at constant pressure (90 K): 79.81 ± 0.28 J/K/mol
molar heat capacity at constant pressure (90.96 K): 80.42 ± 0.28 J/K/mol
molar heat capacity at constant pressure (91.97 K): 80.85 ± 0.28 J/K/mol
molar heat capacity at constant pressure (92.99 K): 81.43 ± 0.28 J/K/mol
molar heat capacity at constant pressure (94.01 K): 82.02 ± 0.28 J/K/mol
molar heat capacity at constant pressure (95 K): 82.75 ± 0.28 J/K/mol
molar heat capacity at constant pressure (95.03 K): 82.39 ± 0.28 J/K/mol
molar heat capacity at constant pressure (96.04 K): 83.43 ± 0.28 J/K/mol
molar heat capacity at constant pressure (97.06 K): 84.19 ± 0.28 J/K/mol
molar heat capacity at constant pressure (98.07 K): 84.16 ± 0.28 J/K/mol
molar heat capacity at constant pressure (99.09 K): 84.89 ± 0.28 J/K/mol
molar heat capacity at constant pressure (100 K): 85.29 ± 0.28 J/K/mol
molar heat capacity at constant pressure (100.1 K): 85.45 ± 0.29 J/K/mol
molar heat capacity at constant pressure (101.62 K): 86.18 ± 0.29 J/K/mol
molar heat capacity at constant pressure (103.64 K): 87.3 ± 0.29 J/K/mol
molar heat capacity at constant pressure (105.66 K): 88.28 ± 0.29 J/K/mol
molar heat capacity at constant pressure (107.68 K): 89.36 ± 0.29 J/K/mol
molar heat capacity at constant pressure (109.7 K): 90.17 ± 0.29 J/K/mol
molar heat capacity at constant pressure (110 K): 90.46 ± 0.29 J/K/mol
molar heat capacity at constant pressure (111.72 K): 91.08 ± 0.29 J/K/mol
molar heat capacity at constant pressure (113.73 K): 92.15 ± 0.29 J/K/mol
molar heat capacity at constant pressure (115.74 K): 93.34 ± 0.29 J/K/mol
molar heat capacity at constant pressure (117.75 K): 94.24 ± 0.29 J/K/mol
molar heat capacity at constant pressure (119.76 K): 95.16 ± 0.29 J/K/mol
molar heat capacity at constant pressure (120 K): 95.31 ± 0.29 J/K/mol
molar heat capacity at constant pressure (121.76 K): 96.24 ± 0.3 J/K/mol
molar heat capacity at constant pressure (123.77 K): 97.13 ± 0.3 J/K/mol
molar heat capacity at constant pressure (125.78 K): 98.02 ± 0.3 J/K/mol
molar heat capacity at constant pressure (127.78 K): 98.84 ± 0.3 J/K/mol
molar heat capacity at constant pressure (129.79 K): 99.75 ± 0.3 J/K/mol
